pIC50: −log10 of the molar value.
Target: megalin (Oryctolagus cuniculus, UniProt Z9GY10I8Y6)
Test: Inhibition of gentamicin binding to immobilized megalin by surface plasmon resonance (Biacore 2000)
Details: 1 mM gentamicin co-injected; megalin purified from rabbit kidneys immobilized on chip; pH 7.4 buffer; FIG. 3; read-out: antagonist concentration at which 50% inhibition of gentamicin binding is obtained
Experimental: Inhibition of gentamicin binding to immobilized megalin by p-xylylene diamine was assessed by surface plasmon resonance (SPR) analysis on a Biacore 2000 instrument (Biacore, Uppsala, Sweden). Megalin purified from rabbit kidneys as described in Birn et al. (J. Biol. Chem., 1997, Vol. 272, No. 42, 26497-26504) was immobilized in a concentration of 28-40 fmol/mm^2. Samples were dissolved in 10 mM Hepes, 150 mM NaCl, 1.5 mM CaCl2, 1 mM EGTA, 0.005% Tween-20 pH 7.4. The same buffer was used as running buffer. At time zero, p-xylylene diamine at the concentrations indicated (FIG. 3) were applied to the chip and binding as expressed in relative response units (RU), i.e. the difference in response between megalin and a control flow channel, was measured. After 700 sec., 1 mM gentamicin was co-injected with buffer alone or various concentrations of p-xylylene diamine. Inhibition of gentamicin binding is scored as the difference in RU units obtained by injection of gentamicin alone and in the presence of the antagonist. Regeneration of the sensor chip after each analysis cycle was performed with 1.6 M glycine-HCl buffer pH 3.0.
50% inhibition is obtained at an antagonist concentration of about 0.1 mM.

megalin, sequence (Z9GY10I8Y6 26-4660 limits assumed): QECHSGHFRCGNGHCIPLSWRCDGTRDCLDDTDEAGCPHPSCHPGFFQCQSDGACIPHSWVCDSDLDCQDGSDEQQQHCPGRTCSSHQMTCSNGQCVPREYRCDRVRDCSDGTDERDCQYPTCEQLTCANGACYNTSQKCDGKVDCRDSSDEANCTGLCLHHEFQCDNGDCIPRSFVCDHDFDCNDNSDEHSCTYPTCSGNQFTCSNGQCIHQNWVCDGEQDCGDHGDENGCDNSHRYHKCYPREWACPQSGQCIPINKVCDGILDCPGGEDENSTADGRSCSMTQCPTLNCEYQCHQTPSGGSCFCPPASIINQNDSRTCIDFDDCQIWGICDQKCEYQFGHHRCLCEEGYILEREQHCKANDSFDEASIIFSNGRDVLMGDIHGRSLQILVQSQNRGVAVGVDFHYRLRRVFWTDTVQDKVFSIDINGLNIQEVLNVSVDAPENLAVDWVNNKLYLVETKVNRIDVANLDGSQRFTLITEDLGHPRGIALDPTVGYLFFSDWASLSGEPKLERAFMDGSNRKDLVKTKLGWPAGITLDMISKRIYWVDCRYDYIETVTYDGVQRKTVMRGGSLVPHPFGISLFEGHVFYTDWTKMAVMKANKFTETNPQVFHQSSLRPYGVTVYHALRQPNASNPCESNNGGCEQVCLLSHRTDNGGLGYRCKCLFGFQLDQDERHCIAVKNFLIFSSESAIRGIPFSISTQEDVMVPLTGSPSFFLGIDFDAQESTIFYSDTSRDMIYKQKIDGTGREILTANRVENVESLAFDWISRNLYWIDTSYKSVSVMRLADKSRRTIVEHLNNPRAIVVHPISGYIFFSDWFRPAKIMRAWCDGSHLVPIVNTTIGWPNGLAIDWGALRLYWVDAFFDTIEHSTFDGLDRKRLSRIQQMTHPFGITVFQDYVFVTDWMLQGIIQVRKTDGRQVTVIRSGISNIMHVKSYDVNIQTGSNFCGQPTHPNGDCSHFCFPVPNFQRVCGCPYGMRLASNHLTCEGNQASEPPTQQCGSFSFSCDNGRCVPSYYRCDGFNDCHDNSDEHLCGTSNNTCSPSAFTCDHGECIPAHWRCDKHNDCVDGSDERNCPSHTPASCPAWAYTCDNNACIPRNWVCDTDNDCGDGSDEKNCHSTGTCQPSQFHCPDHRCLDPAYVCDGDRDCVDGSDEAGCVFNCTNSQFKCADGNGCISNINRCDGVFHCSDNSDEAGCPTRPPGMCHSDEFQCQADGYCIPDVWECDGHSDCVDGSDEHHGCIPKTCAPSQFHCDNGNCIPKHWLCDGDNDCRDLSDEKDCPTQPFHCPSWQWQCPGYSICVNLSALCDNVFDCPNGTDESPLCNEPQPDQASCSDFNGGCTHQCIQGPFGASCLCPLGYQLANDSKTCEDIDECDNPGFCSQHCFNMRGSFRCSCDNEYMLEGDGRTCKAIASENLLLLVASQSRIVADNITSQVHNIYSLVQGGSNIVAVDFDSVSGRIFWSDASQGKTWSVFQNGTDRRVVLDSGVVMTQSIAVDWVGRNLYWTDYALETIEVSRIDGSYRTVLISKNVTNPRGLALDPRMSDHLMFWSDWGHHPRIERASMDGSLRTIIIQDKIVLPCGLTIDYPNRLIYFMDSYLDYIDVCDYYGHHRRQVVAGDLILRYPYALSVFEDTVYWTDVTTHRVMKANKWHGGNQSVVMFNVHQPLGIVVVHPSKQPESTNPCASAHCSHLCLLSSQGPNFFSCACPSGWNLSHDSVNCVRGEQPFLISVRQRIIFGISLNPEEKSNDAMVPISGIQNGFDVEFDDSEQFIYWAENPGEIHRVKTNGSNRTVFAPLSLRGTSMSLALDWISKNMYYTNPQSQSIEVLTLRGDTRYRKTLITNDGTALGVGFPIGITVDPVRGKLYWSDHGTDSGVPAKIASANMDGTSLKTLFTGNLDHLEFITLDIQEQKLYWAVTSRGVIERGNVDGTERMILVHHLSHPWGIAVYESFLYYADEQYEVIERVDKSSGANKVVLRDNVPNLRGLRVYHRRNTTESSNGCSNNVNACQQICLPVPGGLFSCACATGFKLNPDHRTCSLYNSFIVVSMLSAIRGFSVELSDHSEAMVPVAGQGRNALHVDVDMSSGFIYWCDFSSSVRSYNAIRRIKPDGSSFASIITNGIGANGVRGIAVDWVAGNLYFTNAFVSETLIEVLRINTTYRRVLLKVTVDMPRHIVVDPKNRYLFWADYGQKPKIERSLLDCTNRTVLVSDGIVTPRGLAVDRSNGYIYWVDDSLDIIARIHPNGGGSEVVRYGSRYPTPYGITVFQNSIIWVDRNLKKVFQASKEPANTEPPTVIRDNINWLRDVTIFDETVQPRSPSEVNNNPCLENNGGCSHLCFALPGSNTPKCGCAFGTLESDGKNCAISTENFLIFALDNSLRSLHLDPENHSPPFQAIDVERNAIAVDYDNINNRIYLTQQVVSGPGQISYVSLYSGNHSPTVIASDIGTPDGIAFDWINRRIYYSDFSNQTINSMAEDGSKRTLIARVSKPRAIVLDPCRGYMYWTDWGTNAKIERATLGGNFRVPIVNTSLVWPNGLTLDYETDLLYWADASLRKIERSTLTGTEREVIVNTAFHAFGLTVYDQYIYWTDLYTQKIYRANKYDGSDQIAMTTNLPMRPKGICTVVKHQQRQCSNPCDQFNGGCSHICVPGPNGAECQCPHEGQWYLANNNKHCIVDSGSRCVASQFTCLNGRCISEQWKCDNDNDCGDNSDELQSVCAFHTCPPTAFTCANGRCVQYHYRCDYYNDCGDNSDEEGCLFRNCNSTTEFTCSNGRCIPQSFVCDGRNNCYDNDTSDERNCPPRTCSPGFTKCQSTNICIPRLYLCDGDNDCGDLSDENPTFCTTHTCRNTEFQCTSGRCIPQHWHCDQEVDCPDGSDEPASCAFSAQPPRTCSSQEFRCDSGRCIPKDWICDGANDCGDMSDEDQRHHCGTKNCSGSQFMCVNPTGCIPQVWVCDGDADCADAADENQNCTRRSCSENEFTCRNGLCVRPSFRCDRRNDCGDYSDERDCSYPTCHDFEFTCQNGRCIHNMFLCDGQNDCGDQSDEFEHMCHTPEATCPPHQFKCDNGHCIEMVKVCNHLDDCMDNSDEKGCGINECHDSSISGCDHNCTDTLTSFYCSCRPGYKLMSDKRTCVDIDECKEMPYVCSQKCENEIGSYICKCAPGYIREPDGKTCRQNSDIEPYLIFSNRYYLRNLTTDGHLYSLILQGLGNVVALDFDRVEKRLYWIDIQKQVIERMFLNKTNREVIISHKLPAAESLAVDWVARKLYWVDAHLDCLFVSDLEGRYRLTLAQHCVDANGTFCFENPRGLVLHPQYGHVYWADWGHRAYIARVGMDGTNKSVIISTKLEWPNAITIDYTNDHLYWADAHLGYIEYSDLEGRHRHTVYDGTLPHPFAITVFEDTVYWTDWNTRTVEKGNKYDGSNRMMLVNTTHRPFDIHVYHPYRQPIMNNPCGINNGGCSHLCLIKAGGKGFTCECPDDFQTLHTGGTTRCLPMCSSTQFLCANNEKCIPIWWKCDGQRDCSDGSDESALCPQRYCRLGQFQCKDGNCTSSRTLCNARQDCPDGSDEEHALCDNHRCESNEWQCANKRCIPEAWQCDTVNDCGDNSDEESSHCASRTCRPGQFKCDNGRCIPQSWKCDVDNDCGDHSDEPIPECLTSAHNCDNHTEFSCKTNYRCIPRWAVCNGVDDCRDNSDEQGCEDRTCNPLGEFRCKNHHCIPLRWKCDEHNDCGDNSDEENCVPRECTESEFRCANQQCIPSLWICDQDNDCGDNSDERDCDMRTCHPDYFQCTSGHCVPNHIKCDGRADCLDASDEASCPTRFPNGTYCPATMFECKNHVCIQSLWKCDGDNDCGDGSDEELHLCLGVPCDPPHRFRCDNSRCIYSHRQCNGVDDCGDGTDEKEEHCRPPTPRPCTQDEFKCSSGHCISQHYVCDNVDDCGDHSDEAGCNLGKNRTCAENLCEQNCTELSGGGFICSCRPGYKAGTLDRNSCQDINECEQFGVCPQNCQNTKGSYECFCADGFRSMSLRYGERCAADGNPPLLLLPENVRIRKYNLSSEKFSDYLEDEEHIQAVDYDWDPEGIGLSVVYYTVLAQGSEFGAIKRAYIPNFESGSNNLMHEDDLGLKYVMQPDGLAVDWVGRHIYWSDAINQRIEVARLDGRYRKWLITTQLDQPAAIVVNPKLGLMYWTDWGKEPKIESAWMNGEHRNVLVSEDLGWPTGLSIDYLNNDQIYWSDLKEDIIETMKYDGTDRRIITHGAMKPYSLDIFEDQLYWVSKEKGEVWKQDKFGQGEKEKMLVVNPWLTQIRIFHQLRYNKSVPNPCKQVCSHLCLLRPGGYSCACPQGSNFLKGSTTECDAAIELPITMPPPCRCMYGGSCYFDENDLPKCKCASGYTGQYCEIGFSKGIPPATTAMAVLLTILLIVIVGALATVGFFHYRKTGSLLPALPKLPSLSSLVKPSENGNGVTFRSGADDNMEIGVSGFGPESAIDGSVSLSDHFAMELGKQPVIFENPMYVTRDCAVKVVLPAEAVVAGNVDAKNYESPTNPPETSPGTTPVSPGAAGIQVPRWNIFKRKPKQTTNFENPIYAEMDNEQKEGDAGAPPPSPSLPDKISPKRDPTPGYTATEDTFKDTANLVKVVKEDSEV

pIC50: ~4.00
SMILES: NCc1ccc(CN)cc1 [RC043, p-xylylene diamine]
